# Experimental data reported in patent US20080124285A1, “Merocyanine Derivatives for Cosmetic Use” (priority 2003, published 2008).
# Assay: UV absorption maximum (λmax) in solvent
# Type: physicochemical
# Conditions: acetonitril; preparation example
row,SMILES,λmax [nm]
1,CCOC(=O)/C(C#N)=C1\C=C(NCCNC2=C/C(=C(/C#N)C(=O)OCC)CC(C)(C)C2)CC(C)(C)C1 [MC02],389

# Same assay, conditions: ethanol; preparation example
row,SMILES,λmax [nm]
1,CCOC(=O)/C(C#N)=C1\C=C(N2CCN(C3=C/C(=C(/C#N)C(=O)OCC)CC(C)(C)C3)CC2)CC(C)(C)C1 [MC07],406
2,CCOC(=O)C(C(=O)OCC)=C1C=C(NC2CCCCC2NC2=CC(=C(C(=O)OCC)C(=O)OCC)CC(C)(C)C2)CC(C)(C)C1 (centres unmarked) [MC10],373

# Same assay, conditions: in Acetonitril; Table MC1a (intermediates, UV-B absorbers)
row,SMILES,λmax [nm]
1,CC1(C)CC(=O)C=C(NC2CCCCC2NC2=CC(=O)CC(C)(C)C2)C1 (centres unmarked) [MC08a],295(Acetonitril) nm

# Same assay, conditions: in Acetonitrile; Table MC1
row,SMILES,λmax [nm]
1,CC1(C)CC(NCC2(C)CC(NC3=CC(=C(C#N)C#N)CC(C)(C)C3)CC(C)(C)C2)=CC(=C(C#N)C#N)C1 (centres unmarked) [MC37],383(Aceto-nitrile) nm

# Same assay, conditions: in EtOH; Table MC1
row,SMILES,λmax [nm]
1,CCCCC(CC)COC(=O)/C(C#N)=C1/C=C(NCCNC2=C/C(=C(\C#N)C(=O)OCC(CC)CCCC)CC(C)(C)C2)CC(C)(C)C1 (centres unmarked) [MC01],"366,398(EtOH) nm"
2,CCOC(=O)/C(C#N)=C1\C=C(NCCNC2=C/C(=C(/C#N)C(=O)OCC)CC(C)(C)C2)CC(C)(C)C1 [MC02],"366,398(EtOH) nm"
3,CCOC(=O)C(C(=O)OCC)=C1C=C(NCCNC2=CC(=C(C(=O)OCC)C(=O)OCC)CC(C)(C)C2)CC(C)(C)C1 [MC03],383(EtOH) nm
4,CCOC(=O)/C(C#N)=C1\C=C(N2CCN(C3=C/C(=C(/C#N)C(=O)OCC)CC(C)(C)C3)CC2)CC(C)(C)C1 [MC07],406(EtOH) nm
5,CCOC(=O)C(C(=O)OCC)=C1C=C(N2CCN(C3=CC(=C(C(=O)OCC)C(=O)OCC)CC(C)(C)C3)CC2)CC(C)(C)C1 [MC08],373(EtOH) nm
6,CCOC(=O)C(C(=O)OCC)=C1C=C(NC2CCCCC2NC2=CC(=C(C(=O)OCC)C(=O)OCC)CC(C)(C)C2)CC(C)(C)C1 (centres unmarked) [MC10],384(EtOH) nm
7,CCOC(=O)/C(C#N)=C1\C=C(NCCCCCCNC2=C/C(=C(/C#N)C(=O)OCC)CCC2)CCC1 [MC18],388(EtOH) nm
8,CCOC(=O)C(C(=O)OCC)=C1C=C(NCCCCCCNC2=CC(=C(C(=O)OCC)C(=O)OCC)CCC2)CCC1 [MC19],370(EtOH) nm
9,CCOC(=O)/C(C#N)=C1\C=C(NC2CC(C)(C)CC(C)(CNC3=C/C(=C(\C#N)C(=O)OCC)CC(C)(C)C3)C2)CC(C)(C)C1 (centres unmarked) [MC24],391(EtOH) nm
10,CCOC(=O)C(C(=O)OCC)=C1C=C(NCC2(C)CC(NC3=CC(=C(C(=O)OCC)C(=O)OCC)CC(C)(C)C3)CC(C)(C)C2)CC(C)(C)C1 (centres unmarked) [MC25],378(EtOH) nm
11,CC1(C)CC(NC2CCCCC2NC2=CC(=C(C#N)C#N)CC(C)(C)C2)=CC(=C(C#N)C#N)C1 (centres unmarked) [MC34],357/388(EtOH)
12,COC(=O)C(C(=O)OC)=C1C=C(NC2CCCCC2NC2=CC(=C(C(=O)OC)C(=O)OC)CCC2)CCC1 (centres unmarked) [MC35],389(EtOH) nm
13,CCCCC(CC)COC(=O)/C(C#N)=C1/C=C(NC2CCCCC2NC2=C/C(=C(\C#N)C(=O)OCC(CC)CCCC)CCC2)CCC1 (centres unmarked) [MC36],401(EtOH) nm

# Same assay, conditions: in EtOH; Table MC1a (intermediates, UV-B absorbers)
row,SMILES,λmax [nm]
1,CC1(C)CC(=O)C=C(NCCNC2=CC(=O)CC(C)(C)C2)C1 [MC01a],296 (EtOH) nm
2,CC1(C)CC(=O)C=C(N2CCN(C3=CC(=O)CC(C)(C)C3)CC2)C1 [MC06a],309 (EtOH) nm
